# Results as given in patent EP0369881A1, “Compounds derived from the 3-keto-delta 4,9-19-nor steroid structure, and their use as medicaments” (ROUSSEL-UCLAF, priority 1988, dated 1990).
# Key:
# [1] = target: T1, Récepteur progestogène de l'utérus de lapine (Oryctolagus cuniculus, UniProt P06186); test: Relative binding affinity, competition with tritiated Product R, rabbit uterus cytosol; details: reference hormone progestérone
# T1 construct: les utérus sont prélevés, pesés et homogénéisés à 0°C; from tissue; host or cells: uterus cytosol (105 000 g supernatant) of estradiol-primed immature female rabbits
# T1 sequence (P06186 1-930): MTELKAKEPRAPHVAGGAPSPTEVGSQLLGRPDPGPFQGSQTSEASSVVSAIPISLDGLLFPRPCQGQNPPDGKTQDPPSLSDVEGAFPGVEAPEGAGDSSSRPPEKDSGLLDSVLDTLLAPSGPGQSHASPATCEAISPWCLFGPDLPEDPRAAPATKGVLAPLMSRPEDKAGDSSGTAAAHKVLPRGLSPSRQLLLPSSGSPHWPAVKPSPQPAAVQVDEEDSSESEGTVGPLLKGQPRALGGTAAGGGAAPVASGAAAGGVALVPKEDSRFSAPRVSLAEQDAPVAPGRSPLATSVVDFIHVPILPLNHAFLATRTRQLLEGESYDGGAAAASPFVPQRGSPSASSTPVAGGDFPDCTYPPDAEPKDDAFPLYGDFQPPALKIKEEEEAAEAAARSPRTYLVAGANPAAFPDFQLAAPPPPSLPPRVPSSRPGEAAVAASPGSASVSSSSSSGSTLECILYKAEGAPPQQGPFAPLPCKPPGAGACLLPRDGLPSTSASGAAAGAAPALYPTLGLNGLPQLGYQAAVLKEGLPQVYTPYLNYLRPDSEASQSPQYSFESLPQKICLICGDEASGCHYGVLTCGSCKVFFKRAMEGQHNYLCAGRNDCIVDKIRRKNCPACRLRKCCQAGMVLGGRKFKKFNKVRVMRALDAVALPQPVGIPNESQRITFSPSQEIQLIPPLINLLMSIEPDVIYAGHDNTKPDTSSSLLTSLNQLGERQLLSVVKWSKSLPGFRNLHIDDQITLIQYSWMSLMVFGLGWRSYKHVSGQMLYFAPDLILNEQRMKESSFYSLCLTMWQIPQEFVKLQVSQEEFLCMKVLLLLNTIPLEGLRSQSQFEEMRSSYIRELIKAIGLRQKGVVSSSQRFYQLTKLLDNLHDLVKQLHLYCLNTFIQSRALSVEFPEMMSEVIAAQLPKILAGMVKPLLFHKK
# Description: Récepteur progestogène de l'utérus de lapine :
# Des lapines impubères d'environ 1 kg reçoivent une application cutanée de 25 microgrammes d'estradiol. 5 jours après ce traitement, les animaux sont sacrifiés, les utérus sont prélevés, pesés et homogénéisés à 0°C, à l'aide d'un Potter teflon-verre dans une solution tamponnée TS (Tris 10mM, saccharose 0,25 M, HCl pH 7,4) (1 g de tissu pour 50 ml de TS). L'homogénat est ensuite ultracentrifugé (105 000 g x 90 mn) à 0°C. Des aliquotes du surnageant ainsi obtenu, sont incubées à 0°C pendant un temps t, avec une concentration constante (T) de Produit R tritié (17,21-diméthyl 19-nor 4,9-pregnadiène-3,20-dione) en présence de concentrations croissantes (0 - 2 500. 10⁻⁹M) soit de R froid, soit de progestérone froide, soit du produit froid à tester. La concentration de R tritié lié (B) est ensuite mesurée dans chaque incubat par la technique d'adsorption au charbon dextran.
# (§1) Calcul de l'affinité relative de liaison:
# (§2) Le calcul de l'affinité relative de liaison (ARL) est identique pour tous les récepteurs.
# (§3) On trace les 2 courbes suivantes : le pourcentage de l'hormone tritiée liée (B)/(T) [formula] en fonction du logarithme de la concentration de l'hormone de référence froide et (B)/(T) [formula] en en fonction du logarithme de la concentration du produit froid testé.
# (§4) On détermine la droite d'équation I₅₀ = ( (B)/(T) [formula] max + (B)/(T) [formula] min)/2. (B)/(T) [formula] max = Pourcentage de l'hormone tritiée liée pour une incubation de cette hormone tritiée à la concentration (T). (B)/(T) [formula] min = Pourcentage de l'hormone tritiée liée pour une incubation de cette hormone tritiée à la concentration (T) en présence d'un grand excès d'hormone froide (2500.10⁻⁹M).
# (§5) Les intersections de la droite I₅₀ et des courbes permettent d'évaluer les concentrations de l'hormone de référence froide (CH) et du produit froid testé (CX) qui inhibent de 50% la liaison de l'hormone tritiée sur le récepteur.
# (§6) L'affinité relative de liaison (ARL) du produit testé est déterminée par l'équation [formula]
# [2] = target: T2, Récepteur glucocorticoïde du thymus de rat (Rattus norvegicus, UniProt P06536); test: Relative binding affinity, competition with tritiated dexamethasone, rat thymus cytosol; details: reference hormone dexaméthasone
# T2 construct: les thymus sont prélevés et homogénéisés à 0°C; from tissue; host or cells: thymus cytosol (105 000 g supernatant) of adrenalectomised male Sprague Dawley rats
# T2 sequence (P06536 1-795): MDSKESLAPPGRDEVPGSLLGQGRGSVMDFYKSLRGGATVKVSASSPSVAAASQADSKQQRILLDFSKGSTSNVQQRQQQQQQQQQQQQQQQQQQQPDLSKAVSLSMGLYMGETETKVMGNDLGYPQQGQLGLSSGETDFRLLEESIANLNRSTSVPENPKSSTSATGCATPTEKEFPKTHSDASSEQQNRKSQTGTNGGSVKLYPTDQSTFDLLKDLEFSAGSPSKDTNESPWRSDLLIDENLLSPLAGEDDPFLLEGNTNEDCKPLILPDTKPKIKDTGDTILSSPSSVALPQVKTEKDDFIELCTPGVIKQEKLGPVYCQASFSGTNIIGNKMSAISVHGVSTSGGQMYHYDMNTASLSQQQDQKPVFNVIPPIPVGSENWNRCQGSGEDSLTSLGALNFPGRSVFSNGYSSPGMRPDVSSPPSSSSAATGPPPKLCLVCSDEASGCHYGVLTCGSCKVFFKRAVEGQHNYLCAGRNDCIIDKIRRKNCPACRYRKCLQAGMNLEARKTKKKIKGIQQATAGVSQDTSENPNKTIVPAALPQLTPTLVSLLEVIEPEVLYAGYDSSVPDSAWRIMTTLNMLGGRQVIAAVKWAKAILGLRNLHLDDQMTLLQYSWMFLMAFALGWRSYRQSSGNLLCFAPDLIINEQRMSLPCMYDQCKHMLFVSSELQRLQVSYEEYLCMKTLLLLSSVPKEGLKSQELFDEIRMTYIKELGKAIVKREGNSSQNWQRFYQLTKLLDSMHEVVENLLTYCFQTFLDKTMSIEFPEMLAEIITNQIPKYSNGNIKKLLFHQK
# Description: Récepteur glucocorticoïde du thymus de rat :
# Des rats mâles Sprague Dawley EOPS de 160 à 200 g sont surrénalectomisés. 4 à 8 jours après cette ablation, les animaux sont sacrifiés, et les thymus sont prélevés et homogénéisés à 0°C dans un tampon Tris 10mM, saccharose 0,25M, dithiothreitol 2mM, HCl pH 7,4, à l'aide d'un Potter polyté-trafluoroéthylène-verre (1 g de tissu pour 10 ml de TS). L'homogénat est ensuite ultracentrifugé (105 000 g x 90 mn) à 0°C. Des aliquotes du surnageant ainsi obtenu, sont incubées à 0°C pendant un temps (t) avec une concentration constante (T) de dexaméthasone tritiée en présence de concentrations croissantes (O - 2 500.10⁻⁹M) soit de dexaméthasone froide, soit du produit froid à tester. La concentration de la dexaméthasone tritiée liée (B) est ensuite mesurée dans chaque incubat par la technique d'adsorption au charbon dextran.
# as §1, §2, §3, §4, §5, §6
Structure (SMILES),affinité relative de liaison (ARL) Progestogène ([1]; incubation 2H at 0°C),affinité relative de liaison (ARL) Progestogène ([1]; incubation 24H at 0°C),affinité relative de liaison (ARL) Glucocorticoïde ([2]; incubation 1H at 0°C),affinité relative de liaison (ARL) Glucocorticoïde ([2]; incubation 24H at 0°C)
"CSc1ccc([C@H]2C[C@@]3(C)[C@@H](CC[C@@]3(O)C#CCCl)[C@@H]3CCC4=CC(=O)CCC4=C32)cc1 [Exemple 4, 17alpha-(3-chloro 1-propynyl) 17béta-hydroxy 11béta-[4-(méthylthio)phényl] estra-4,9-dièn-3-one]",70,351,156,139
"CSc1ccc([C@H]2C[C@@]3(C)[C@@H](CC[C@@]3(O)C#CCO)[C@@H]3CCC4=CC(=O)CCC4=C32)cc1 [Exemple 1, 17béta-hydroxy 17alpha-(3-hydroxy 1-propynyl) 11béta-[4-(méthylthio)phényl] estra-4,9-dien-3-one]",72,86,133,99
"CSc1ccc([C@H]2C[C@@]3(C)[C@@H](CC[C@@]3(O)C#CCF)[C@@H]3CCC4=CC(=O)CCC4=C32)cc1 [Exemple 3, 17alpha-(3-fluoro 1-propynyl) 17béta-hydroxy 11béta-[4-(méthylthio)phényl] estra-4,9-dièn-3-one]",55,225,142,169
